Results taken from patent US20120172369A1 (priority 2009, published 2012).

What follows are compounds tested against T1, human DGAT1 enzyme (Homo sapiens, UniProt O75907) (assay: in vitro DGAT1 inhibition assay (microsomes, [14C]-palmitoyl-CoA, SPA beads)). Settings: human DGAT1 expressed in Sf9 insect cells, microsomes; 2 hours at room temperature; read-out: IC50.
T1 construct: made in house; host or cells: Sf9 insect cells (microsomal membranes)
T1 sequence (O75907 1-488): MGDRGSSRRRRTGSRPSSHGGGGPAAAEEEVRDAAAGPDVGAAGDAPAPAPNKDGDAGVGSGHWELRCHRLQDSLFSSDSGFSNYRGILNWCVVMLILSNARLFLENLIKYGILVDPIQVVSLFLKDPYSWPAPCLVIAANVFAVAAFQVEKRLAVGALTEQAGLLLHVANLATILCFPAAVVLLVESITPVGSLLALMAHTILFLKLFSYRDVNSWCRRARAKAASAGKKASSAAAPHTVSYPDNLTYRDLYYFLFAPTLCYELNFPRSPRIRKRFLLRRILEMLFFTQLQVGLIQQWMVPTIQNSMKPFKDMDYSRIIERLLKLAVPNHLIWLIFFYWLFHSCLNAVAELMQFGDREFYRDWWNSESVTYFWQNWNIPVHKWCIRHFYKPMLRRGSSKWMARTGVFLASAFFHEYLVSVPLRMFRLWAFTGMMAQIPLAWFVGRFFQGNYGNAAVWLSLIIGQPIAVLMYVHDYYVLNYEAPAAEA
Format: biochemical
Description: The in vitro assay to identify DGAT1 inhibitors uses human DGAT1 enzyme expressed in Sf9 insect cells prepared as microsomes. The reaction was initiated by the addition of the combined substrates 1,2-dioleoyl-sn-glycerol and [^14C]-palmitoyl-Co A and incubated with test compounds and microsomal membranes for 2 hours at room temperature. The assay was stopped by adding 0.5 mg wheat germ agglutinin beads in assay buffer with 1% Brij-35 and 1% 3-cholamidopropyldimethyl-ammonio-1-propane sulfonate. Plates were sealed with TopSeal and incubated for 18 hours to allow the radioactive triglyceride product to come into proximity with the bead. Plates were read on a TopCount instrument.
Percent inhibition was calculated as the percent of (test compound inhibition minus non-specific binding) relative to (total binding minus non-specific binding). IC50 values were determined by curve fitting the data to a Sigmoidal dose-response in GraphPad Prism utilizing the following equation:
Y=A+(B−A)/(1+10̂((Log IC50−X))),
where A and B are the bottom and top of the curve (highest and lowest inhibition), respectively, and X is the logarithm of concentration.
`Cc1c(C(=O)Nc2ccc(N3CCC(COc4cccc(C(=O)O)c4)CC3)nc2)oc2ccccc12` [Example 91, 3-((1-(5-(3-methylbenzofuran-2-carboxamido)pyridin-2-yl)piperidin-4-yl)methoxy)benzoic acid] gave an IC50 of 84 nM. Work on `O=C(Nc1ccc(N2CCN(C(=O)Nc3ccccc3F)CC2)nc1)c1coc2ccccc12` [Example 11, 4-(5-(benzofuran-3-carboxamido)pyridin-2-yl)-N-(2-fluorophenyl)piperazine-1-carboxamide] yielded an IC50 of 95 nM. `Cc1c(C(=O)Nc2ccc(N3CCN(C(=O)[C@H](O)c4ccccc4)CC3)nc2)oc2ccccc12` [Example 2, (R)—N-(6-(4-(2-hydroxy-2-phenylacetyl)piperazin-1-yl)pyridin-3-yl)-3-methylbenzofuran-2-carboxamide] gave an IC50 of 625 nM. `Cc1c(C(=O)Nc2ccc(N3CCN(C(=O)Nc4ccccc4F)CC3)nc2)oc2ccc(-c3cccc(F)c3)cc12` [Example 27, N-(2-fluorophenyl)-4-(5-(5-(3-fluorophenyl)-3-methylbenzofuran-2-carboxamido)pyridin-2-yl)piperazine-1-carboxamide] showed an IC50 of 316 nM. `Cc1c(C(=O)Nc2ccc(N3CCC(OCc4cccc(C(=O)O)c4)CC3)nc2)oc2ccc(-c3cccc(F)c3)cc12` [Example 29, 3-((1-(5-(5-(3-fluorophenyl)-3-methylbenzofuran-2-carboxamido)pyridin-2-yl)piperidin-4-yloxy)methyl)benzoic acid] gave an IC50 of 134 nM. In the case of `COC(=O)c1cccc(COC2CCN(c3ccc(NC(=O)c4oc5ccc(-c6ccccc6OC)cc5c4C)cn3)CC2)c1` [Example 72, methyl 3-((1-(5-(5-(2-methoxyphenyl)-3-methylbenzofuran-2-carboxamido)pyridin-2-yl)piperidin-4-yloxy)methyl)benzoate], the IC50 is reported as 13300 nM. With `Cc1c(C(=O)Nc2ccc(N3CCN(C(=O)Nc4ccccc4F)CC3)nc2)oc2ccc(-c3ccc(F)cc3)cc12` [Example 40, N-(2-fluorophenyl)-4-(5-(5-(4-fluorophenyl)-3-methylbenzofuran-2-carboxamido)pyridin-2-yl)piperazine-1-carboxamide] the IC50 was 100 nM. For `Cc1c(C(=O)Nc2ccc(N3CCC(COc4cccc(C(=O)O)c4)CC3)nc2)oc2ccc(-c3ccccc3)cc12` [Example 18, 3-((1-(5-(3-methyl-5-phenylbenzofuran-2-carboxamido)pyridin-2-yl)piperidin-4-yl)methoxy)benzoic acid], the IC50 was 52 nM. Compound `Cc1c(C(=O)Nc2ccc(N3CCN(C(=O)Nc4ccccc4F)CC3)nc2)sc2ccc(-c3ccccc3)cc12` [Example 46, N-(2-fluorophenyl)-4-(5-(3-methyl-5-phenylbenzo[b]thiophene-2-carboxamido)pyridin-2-yl)piperazine-1-carboxamide] has an IC50 of 84 nM. With `CCOC(=O)c1ccccc1NC(=O)N1CCN(c2ccc(NC(=O)c3oc4ccc(-c5cccc(F)c5)cc4c3C)cn2)CC1` [Example 30, ethyl 2-(4-(5-(5-(3-fluorophenyl)-3-methylbenzofuran-2-carboxamido)pyridin-2-yl)piperazine-1-carboxamido)benzoate] the IC50 was 1420 nM. `Cc1c(C(=O)Nc2ccc(N3CCN(C(=O)Nc4ccccc4F)CC3)nc2)oc2c(F)cccc12` [Example 9, 4-(5-(7-fluoro-3-methylbenzofuran-2-carboxamido)pyridin-2-yl)-N-(2-fluorophenyl)piperazine-1-carboxamide] showed an IC50 of 49 nM. In the case of `COC(=O)c1cccc(COC2CCN(c3ccc(NC(=O)c4oc5ccc(-c6ccc(F)cc6)cc5c4C)cn3)CC2)c1` [Example 35, methyl 3-((1-(5-(5-(4-fluorophenyl)-3-methylbenzofuran-2-carboxamido)pyridin-2-yl)piperidin-4-yloxy)methyl)benzoate], the IC50 is reported as 38 nM. Work on `Cc1c(C(=O)Nc2ccc(N3CCC(OCc4cccc(C(=O)O)c4)CC3)nc2)oc2ccc(-c3ccc(F)cc3)cc12` [Example 37, 3-((1-(5-(5-(4-fluorophenyl)-3-methylbenzofuran-2-carboxamido)pyridin-2-yl)piperidin-4-yloxy)methyl)benzoic acid] yielded an IC50 of 106 nM. `Cc1c(C(=O)Nc2ccc(N3CCC(COc4cccc(C(=O)O)c4)CC3)nc2)oc2ccc(-c3ccc(F)cc3)cc12` [Example 39, 3-((1-(5-(5-(4-fluorophenyl)-3-methylbenzofuran-2-carboxamido)pyridin-2-yl)piperidin-4-yl)methoxy)benzoic acid] gave an IC50 of 55 nM. `Cc1c(C(=O)Nc2ccc(N3CCN(C(=O)Nc4ccccc4F)CC3)nc2)sc2ccc(-c3cccc(F)c3)cc12` [Example 54, N-(2-fluorophenyl)-4-(5-(5-(3-fluorophenyl)-3-methylbenzo[b]thiophene-2-carboxamido)pyridin-2-yl)piperazine-1-carboxamide] showed an IC50 of 220 nM. In the case of `Cc1c(C(=O)Nc2ccc(N3CCC(COc4cccc(C(=O)O)c4)CC3)nc2)oc2ccc(-c3ccccc3F)cc12` [Example 26, 3-((1-(5-(5-(2-fluorophenyl)-3-methylbenzofuran-2-carboxamido)pyridin-2-yl)piperidin-4-yl)methoxy)benzoic acid], the IC50 is reported as 59 nM. In the case of `Cc1c(C(=O)Nc2ccc(N3CC[C@@H](COc4ccc(C(=O)O)cc4)C3)nc2)oc2ccc(-c3ccccc3)cc12` [Example 80, (R)-4-((1-(5-(3-methyl-5-phenylbenzofuran-2-carboxamido)pyridin-2-yl)pyrrolidin-3-yl)methoxy)benzoic acid], the IC50 is reported as 600 nM. Compound `Cc1c(C(=O)Nc2ccc(N3CCN(C(=O)Nc4ccccc4C(=O)O)CC3)nc2)oc2ccc(-c3cccc(F)c3)cc12` [Example 31, 2-(4-(5-(5-(3-fluorophenyl)-3-methylbenzofuran-2-carboxamido)pyridin-2-yl)piperazine-1-carboxamido)benzoic acid] has an IC50 of 84 nM. `CCOC(=O)c1ccccc1NC(=O)N1CCN(c2ccc(NC(=O)c3oc4ccc(-c5ccccc5F)cc4c3C)cn2)CC1` [Example 21, ethyl 2-(4-(5-(5-(2-fluorophenyl)-3-methylbenzofuran-2-carboxamido)pyridin-2-yl)piperazine-1-carboxamido)benzoate] gave an IC50 of 566 nM. `CCOC(=O)c1ccccc1NC(=O)N1CCN(c2ccc(NC(=O)c3sc4ccc(-c5ccccc5)cc4c3C)cn2)CC1` [Example 50, ethyl 2-(4-(5-(3-methyl-5-phenylbenzo[b]thiophene-2-carboxamido)pyridin-2-yl)piperazine-1-carboxamido)benzoate] gave an IC50 of 2330 nM. For `Cc1c(C(=O)Nc2ccc(N3CCN(C(=O)Nc4ccccc4F)CC3)nc2)oc2ccc(-c3ncco3)cc12` [Example 82, N-(2-fluorophenyl)-4-(5-(3-methyl-5-(oxazol-2-yl)benzofuran-2-carboxamido)pyridin-2-yl)piperazine-1-carboxamide], the IC50 was 104 nM. In the case of `COc1ccccc1-c1ccc2oc(C(=O)Nc3ccc(N4CCN(C(=O)Nc5ccccc5F)CC4)nc3)c(C)c2c1` [Example 69, N-(2-fluorophenyl)4-(5-(5-(2-methoxyphenyl)-3-methylbenzofuran-2-carboxamido)pyridin-2-yl)piperazine-1-carboxamide], the IC50 is reported as 204 nM. Work on `Cc1c(C(=O)Nc2ccc(N3CCN(C(=O)Nc4ccccc4C(=O)O)CC3)nc2)oc2ccc(-c3ccccc3F)cc12` [Example 24, 2-(4-(5-(5-(2-fluorophenyl)-3-methylbenzofuran-2-carboxamido)pyridin-2-yl)piperazine-1-carboxamido)benzoic acid] yielded an IC50 of 59 nM. In the case of `CCOC(=O)c1ccccc1NC(=O)N1CCN(c2ccc(NC(=O)c3oc4ccc(-c5ccc(OC)cc5)cc4c3C)cn2)CC1` [Example 65, ethyl 2-(4-(5-(5-(4-methoxyphenyl)-3-methylbenzofuran-2-carboxamido)pyridin-2-yl)piperazine-1-carboxamido)benzoate], the IC50 is reported as 454 nM. `Cc1c(C(=O)Nc2ccc(-c3ccc(OCC(C)(C)C(=O)O)nc3)nc2)oc2ccc(-c3ccccc3)cc12` [Example 59, 2,2-dimethyl-3-(5-(3-methyl-5-phenylbenzofuran-2-carboxamido)-2,3′-bipyridin-6′-yloxy)propanoic acid] showed an IC50 of 9 nM. Compound `Cc1c(C(=O)Nc2ccc(-c3ccc(OC4CCC(C(=O)O)CC4)nc3)nc2)oc2ccc(-c3ccccc3)cc12` (stereo not drawn) [Example 95, 4-(5-(3-methyl-5-phenylbenzofuran-2-carboxamido)-2,3′-bipyridin-6′-yloxy)cyclohexanecarboxylic acid] has an IC50 of 6 nM. `Cc1c(C(=O)Nc2ccc(N3CCN(C(=O)Nc4ccccc4C(=O)O)CC3)nc2)oc2ccc(-c3ccc(F)cc3)cc12` [Example 36, 2-(4-(5-(5-(4-fluorophenyl)-3-methylbenzofuran-2-carboxamido)pyridin-2-yl)piperazine-1-carboxamido)benzoic acid] showed an IC50 of 90 nM.
